Reference: PubChem BioAssay (NCI)
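Values below derive from 48-hour exposures of cells grown in 96-well plates, with endpoints linearly interpolated between the two concentrations bracketing the appropriate inhibition level. Abbreviation: GI50, concentration required for 50% inhibition of growth. The concentration for full growth arrest is given as TGI.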

Experiments:
Experiment in all cases: DTP human tumour cell line panel, 48 h
[1] = system: HCC-2998 colon
[2] = system: HOP-62 NSCLC
[3] = system: LOX IMVI melanoma
[4] = system: MDA-MB-231 breast
[5] = system: MOLT-4 leukemia
[6] = system: SK-OV-3 ovarian
[7] = system: SR leukemia
[8] = system: U251 CNS
[9] = system: UACC-62 melanoma
[10] = system: UO-31 renal

Compound | GI50 [1] | TGI [1] | GI50 [2] | TGI [2] | GI50 [3] | TGI [3] | GI50 [4] | TGI [4] | GI50 [5] | TGI [5] | GI50 [6] | TGI [6] | GI50 [7] | TGI [7] | GI50 [8] | TGI [8] | GI50 [9] | TGI [9] | GI50 [10] | TGI [10]
O=C(CCN1CCOCC1)Nc1cccc(-n2cc(-c3ccncc3)c(-c3ccc(Cl)c(O)c3)n2)c1 | 4.57 µM | 17.3 µM | 2.23 µM | 13.5 µM | 1.91 µM | 11.8 µM | 2.6 µM | 6.84 µM | 2.65 µM | 11.9 µM | 3.51 µM | 14.4 µM | 0.685 µM | 8.53 µM | 3.32 µM | 12.8 µM | 1.67 µM | 13.6 µM | 1.69 µM | 11 µM
O=C1c2ccccc2C(=O)c2c(NCCN=Cc3ccccc3O)cccc21 | 7.82 µM | 22.6 µM | 6.61 µM | 52.3 µM | 3.89 µM | 9.63 µM | 7.91 µM | > 80.6 µM | 3.33 µM | > 30.5 µM | 3.54 µM | > 48.2 µM | 0.944 µM | > 100 µM | 5.06 µM | 19.5 µM | 5.59 µM | – | 2.51 µM | 11 µM
COc1ccc(-c2ccc(NNC(=O)c3ccc(F)cc3)nn2)cc1OC | > 100 µM | > 100 µM | 91.7 µM | > 100 µM | 67.6 µM | > 100 µM | 93 µM | > 100 µM | 40.6 µM | > 100 µM | > 100 µM | > 100 µM | > 100 µM | > 100 µM | > 100 µM | > 100 µM | > 100 µM | > 100 µM | 31.7 µM | > 100 µM
CN1C(NNC(=O)c2cccnc2)=NS(=O)(=O)c2cc(Cl)ccc21 | > 100 µM | > 100 µM | > 100 µM | > 100 µM | > 100 µM | > 100 µM | > 100 µM | > 100 µM | > 100 µM | > 100 µM | > 100 µM | > 100 µM | > 100 µM | > 100 µM | > 100 µM | > 100 µM | > 100 µM | > 100 µM | > 100 µM | > 100 µM
NC(=O)CNc1ccc([As]=[As]c2ccc(NCC(N)=O)cc2)cc1 (configuration not stated) | 13.9 µM | 29.7 µM | 3.94 µM | 14.6 µM | 6.03 µM | 23.8 µM | 3.27 µM | 21 µM | 9.29 µM | > 100 µM | 22.6 µM | 71.4 µM | 2.25 µM | > 100 µM | 1.57 µM | 23.2 µM | 4.2 µM | 18.2 µM | 8.21 µM | 24.5 µM
O=[N+]([O-])c1ccc(Sc2c3ccccc3nc3ccccc23)cn1 | – | > 81.7 µM | – | > 65.7 µM | – | 26.9 µM | – | 42.5 µM | – | 6.62 µM | – | > 93 µM | – | > 100 µM | – | > 60.1 µM | – | 35 µM | – | 32.3 µM
COc1ccc2c(c1)C(C)Cc1c(ncnc1-n1cnc3ccccc31)N2C (configuration not stated) | 0.922 µM | 10.4 µM | 0.638 µM | 25 µM | 0.602 µM | 18.2 µM | 1.04 µM | 4.35 µM | 0.479 µM | 21.2 µM | 0.429 µM | 16 µM | 0.33 µM | 28 µM | 0.59 µM | 16.2 µM | 0.735 µM | 21.2 µM | 0.72 µM | 19.2 µM
CS(=O)(=O)CS(=O)(=O)OCCCl | – | 727 µM | – | 151 µM | – | 497 µM | – | 918 µM | – | 629 µM | – | 423 µM | – | 876 µM | – | 664 µM | – | 268 µM | – | 1080 µM
COc1ccc(-c2noc(N)c2-c2cc(OC)c3c(c2)OCO3)cc1 | 3.68 µM | > 33.9 µM | 3.19 µM | > 100 µM | 4.02 µM | > 100 µM | 2.76 µM | 60.9 µM | 1.98 µM | > 64.1 µM | 4.54 µM | > 38.3 µM | 0.523 µM | > 51.2 µM | 3.7 µM | > 100 µM | 4.22 µM | > 100 µM | 7.39 µM | > 100 µM
Nc1c(C(=O)Nc2ccccc2Cl)sc2nc3c(cc12)C(=O)CCC3 | 21.2 µM | > 100 µM | 4.33 µM | > 67.3 µM | 51.9 µM | > 100 µM | 6.97 µM | > 100 µM | > 100 µM | > 100 µM | 0.782 µM | > 50.5 µM | – | > 100 µM | 4.18 µM | > 100 µM | 0.789 µM | > 100 µM | > 100 µM | > 100 µM
COC(=O)[C@]12CC[C@@H](C)[C@H](C)[C@@H]1C1=CC[C@@H]3[C@@]4(C)C(C=O)=C[C@@](C)(COC(=O)c5ccco5)[C@@H]4[C@H](O)C[C@@]3(C)[C@]1(C)CC2 | 1.92 µM | 3.71 µM | 2.16 µM | 6.07 µM | 1.57 µM | 2.94 µM | 2.49 µM | 5.83 µM | 2.29 µM | 7.5 µM | 3.64 µM | 18.3 µM | 1.8 µM | 5.13 µM | 1.41 µM | 2.91 µM | 0.382 µM | 2.22 µM | 1.66 µM | 3.48 µM
COc1ccc(-c2cc(Nc3ccnc(N4CCOCC4)n3)on2)cc1 | 0.461 µM | 10.6 µM | 0.372 µM | 16.8 µM | 0.353 µM | 15.3 µM | 0.339 µM | 22.5 µM | 0.766 µM | 25.5 µM | 0.351 µM | 22.5 µM | 0.0566 µM | > 100 µM | 0.329 µM | 12.7 µM | 0.115 µM | 15.9 µM | 0.742 µM | 13.8 µM
Clc1nc(Cl)c2ncn(Cc3ccccc3Cn3cnc4c(Cl)nc(Cl)nc43)c2n1 | 1.88 µM | 3.56 µM | 9.11 µM | 19.3 µM | 1.16 µM | 2.65 µM | 1.55 µM | 3.01 µM | 1.99 µM | 5.13 µM | 15.3 µM | 33.7 µM | 2.17 µM | 5.15 µM | 2.05 µM | 4.63 µM | 1.66 µM | 3.25 µM | 1.91 µM | 3.85 µM
CC(C)(C)c1cc(C(=O)/C=C/c2ccc(C(=O)O)cc2)cc(C(C)(C)C)c1 | – | 3.88 µM | – | 6.49 µM | – | 8.54 µM | – | 13 µM | – | 8.31 µM | – | 12.5 µM | – | 6.16 µM | – | 11.2 µM | – | 4.67 µM | – | 17.8 µM
NCCCn1c2c(c3ccccc3c1=O)C(=O)c1ccccc1-2 | 0.0684 µM | 1.01 µM | 0.0875 µM | 0.64 µM | 0.0649 µM | 0.702 µM | 0.177 µM | 0.736 µM | 0.0363 µM | 0.7 µM | 0.133 µM | 1.94 µM | 0.0743 µM | – | 0.0888 µM | 1.42 µM | 0.247 µM | 2.69 µM | 0.248 µM | 16.5 µM
Cc1noc2c1-c1ccccc1C(c1ccc(Cl)cc1)=N[C@H]2CC(N)=O | 9.5 µM | > 100 µM | 2.6 µM | > 100 µM | 2.3 µM | > 100 µM | 7.56 µM | > 100 µM | 7.71 µM | > 100 µM | 1.54 µM | > 65.7 µM | 0.976 µM | > 70.6 µM | 20 µM | > 100 µM | 0.462 µM | > 58.9 µM | 0.283 µM | > 100 µM
NC(N)=N/N=C(\N=Nc1ccccc1)c1ccc(Cl)cc1 | 2.14 µM | 4.68 µM | 5.1 µM | 18.8 µM | 1.18 µM | 3.54 µM | 1.9 µM | 12.7 µM | 2.35 µM | 6.16 µM | 3.44 µM | 9.63 µM | 1.93 µM | 4.72 µM | 2.39 µM | 7.55 µM | 1.13 µM | 4.35 µM | 2.29 µM | 6.34 µM
O=C(Nc1ccc(Cl)cc1)Nc1nccs1 | 12.9 µM | 45.9 µM | 15.1 µM | > 100 µM | 0.786 µM | > 100 µM | 3.18 µM | 41.5 µM | 4.8 µM | 84.2 µM | 5.04 µM | > 100 µM | 0.45 µM | 62.6 µM | 3.44 µM | 26.9 µM | 0.756 µM | 57.9 µM | 4.29 µM | > 100 µM
COc1ccc(-c2nn(-c3cccc(Cl)c3)cc2-c2nc(N)[nH]c(=O)c2C#N)cc1 | 5.87 µM | 24.9 µM | 10.1 µM | 26.2 µM | 4.02 µM | 20.1 µM | 3.39 µM | 53.3 µM | 4.8 µM | 39.8 µM | 6.56 µM | 30.7 µM | 3.73 µM | 21.2 µM | 3.66 µM | 18.8 µM | 3.33 µM | 15.4 µM | 2.94 µM | 47.8 µM
NCCCOc1cc(Cl)ccc1NC(=O)c1cc2ccccc2cc1OCCCN | 1.39 µM | 2.82 µM | 1.26 µM | 2.59 µM | 1.2 µM | 2.59 µM | 1.19 µM | 2.69 µM | 1.51 µM | 3.25 µM | 1.4 µM | 2.72 µM | 1.72 µM | 4.71 µM | 1.71 µM | 3.24 µM | 1.78 µM | 3.3 µM | 1.2 µM | 2.65 µM
C=C(C)[C@@H]1CC[C@]2(C)[C@H](CC[C@@H]3[C@@H]([C@@](C)(O)CCC=C(C)C)CC[C@]32C)[C@@]1(C)CCC(=O)O | 21.2 µM | 37.8 µM | 18.6 µM | 45.3 µM | 17.9 µM | 31.8 µM | 16.6 µM | 33.1 µM | 15.4 µM | 52.7 µM | 32.9 µM | > 100 µM | 16.5 µM | 44.7 µM | 16.6 µM | 31.8 µM | 13.9 µM | 29.5 µM | 15.7 µM | 29.4 µM
C=C1C(O)C2C(=C(C)C13CC3)C(=O)C(C)(C)C2OC (configuration not stated) | > 100 µM | > 100 µM | > 100 µM | > 100 µM | > 100 µM | > 100 µM | 53.4 µM | > 100 µM | 38.6 µM | > 100 µM | > 100 µM | > 100 µM | 38 µM | > 100 µM | > 100 µM | > 100 µM | 90.4 µM | > 100 µM | > 100 µM | > 100 µM
COc1cc(OC)c2sc(-c3ccc(-n4cncc4-c4cc(OC)c(OC)c(OC)c4)cc3)nc2c1 | > 100 µM | > 100 µM | 75.9 µM | > 100 µM | 5.4 µM | > 100 µM | 3.51 µM | > 100 µM | 4.24 µM | > 100 µM | > 100 µM | > 100 µM | 3.24 µM | > 100 µM | 4.15 µM | > 100 µM | 4.14 µM | > 100 µM | 2.27 µM | > 100 µM
CCOC(=O)C1=C(N)Oc2c(sc3c(C)cccc23)C1c1ccc(F)cc1 (configuration not stated) | 1.72 µM | 8.78 µM | 0.618 µM | 20.1 µM | 0.596 µM | 12.3 µM | 2.37 µM | 16 µM | 1.88 µM | 17.5 µM | 11.5 µM | 32.3 µM | 0.47 µM | 17.9 µM | 0.58 µM | 17 µM | 0.399 µM | 13.5 µM | 0.583 µM | 18.3 µM
Oc1ccc(Oc2cnc3ccccc3n2)cc1 | > 100 µM | > 100 µM | > 100 µM | > 100 µM | > 100 µM | > 100 µM | > 100 µM | > 100 µM | 41.4 µM | > 100 µM | > 100 µM | > 100 µM | 78.5 µM | > 100 µM | > 100 µM | > 100 µM | > 100 µM | > 100 µM | 66.6 µM | > 100 µM
